In patent US20240108577A1, “CONTROLLED RELEASE OF […] A SOURCE MATERIAL” (Syqe Medical Ltd., priority 2022, published 2024):

Key:
[1] = Stability of Syqe cartridges stored at 30° C.±2° C. (65% RH±5% RH), LOD and U-HPLC; assay type: physicochemical; details: for change in phytocannabinoid amount during storage: 65% RH, up to 6 months, one-way ANOVA; for amounts detected at all time points: BL to 6 months
Protocol: Additionally, to assess the effects of a warmer temperature on MC, Syqe cartridges were stored post-production at an elevated temperature and humidity of 30° C.±2° C. (65% RH±5% RH). Three different growing batches were analyzed at baseline and at 1, 2, 4 and 6 months of storage.
(§1) Analysis of cannabis inflorescences for the main phytocannabinoids (CBDA, CBD, CBGA, CBN, THCA and THC) was performed as follows: 100 mg of ground Cannabis inflorescences were weighed in duplicate from one container and extracted with 25 mL methanol then sonicated for 40 min and centrifuged at 3000 rpm for 5 min. All samples were filtered through a 0.22 μm PP filter vail prior to analysis. The dilution and quantitation were preformed corresponding to calibration curves. The main six phytocannabinoids were analyzed by ultra-high-performance liquid chromatography (UHPLC: […]) system with a refrigerated auto-sampler, thermostatic column oven and ultraviolet detector, Waters ACQUITY UPLC H-Class. Chromatographic separation was achieved using UPLC column Waters Acquity C18, 1.7 μm particles, 2.1×150 mm maintained at 30° C. The phytocannabinoids were separated using a gradient elution with mobile phases of 0.1% (v/v) formic acid in double-distilled water (phase A) and acetonitrile (phase B), respectively. A constant flow rate of 0.4 mL/min was employed throughout. The gradient profile varied from 70% to 100% B in 10.5 min, held for 0.5 min in these conditions and then returned to the initial conditions.
(§2) For THC and CBD, the concentrations of the acid and its neutral counterpart were summed and reported as the total content. For example, the concentration of total THC […] was calculated as: Total THC=THCA*0.877+THC, with 0.877 being the molar ratio between the two compounds that corrects for a change in the mass of THCA as a result of the loss of CO2 (decarboxylation). This is shown in FIG. 7A: “U-HPLC analysis of the Bedrocan cultivar”.
(§3) R software (V.1.1.463) with tidyverse (17) package was used to analyze changes in outcome measures by one way ANOVA test, using Fisher's exact test analysis. All analyses were followed by a Tukey post-hoc test for multiple comparison. Data are presented as Mean±95% confidence interval (CI). Differences were considered significant at the p<0.05 level.

[2] = Pre-packaging refrigeration stability of ground MC powder (5° C.±2° C., up to 12% RH), LOD and U-HPLC of phytocannabinoids; assay type: physicochemical; details: for change in phytocannabinoid concentration during storage: up to 3 months, one-way ANOVA
Protocol: In the described experiment, Bedrocan strain MC powder was stored at 5° C.±2° C. with up to 12% relative humidity (RH) in a polypropylene container, sealed in an aluminum foil pouch (Oliver-Tolas Healthcare Packaging B.V.; Venray, Netherlands). In order to assess its stability during the handling and hold time, samples were taken from three separate growing batches and assayed at baseline and at 1, 2 and 3 months post grinding. Each sample was assayed for loss on drying (LOD), and of the concentrations of the major phytocannabinoids (CBDA, CBD, CBGA, CBN, THCA and THC).
as §1, §2, §3

[3] = Long-term stability of ground cannabis packaged in Syqe cartridges at 25° C.±2° C. (RH 60%±5%), LOD and U-HPLC; assay type: physicochemical; details: for change in phytocannabinoid amount during storage: RH 60%, up to 24 months, one-way ANOVA
Protocol: (§4) In some embodiments, once cartridges are produced, they are stored, distributed and used at RT. In order to assess the shelf life of such cartridges, a long-term stability study was performed, during which cartridges were stored at 25° C.±2° C. (RH 60%±5%) in a calibrated and certified stability chamber (Memmert Constant climate chamber HPP260). 9, 6, 9, 8, 7, 4 and 4 separate growing batches were tested at baseline and after 3, 6, 9, 12, 18 and 24 months, respectively. At each time point samples of the ground inflorescence within the cartridges were analyzed for LOD and for the amount (mg) of each of the major phytocannabinoids (CBDA, CBD, CBGA, CBN, THCA and THC). Of the same batches, THC aerosolized by the Syqe inhaler was analyzed at baseline and at 6, 9, 18 and 24 months.
as §1, §2, §3

[4] = THC dose aerosolized by the Syqe inhaler from cartridges stored at 25° C. up to 24 months; assay type: physicochemical; details: for aerosolized THC dose: inhaler set to 500 μg THC, mean±95% CI
Protocol: as §4
In some embodiments, the Syqe inhaler is preprogrammed with several distinct heating protocols. In some embodiments, each heating protocol is tailored to heat a VC and deliver an aerosol containing 250, 500, 750 or 1,000 μg or intermediate, larger or smaller amounts of THC to the user. In some embodiments, THC serves as an indicator for dose selection and is optionally delivered with an entourage of phytocannabinoids, terpenes and other molecules of the whole inflorescence that vaporize into the aerosol with it. […] Other dosage amounts are also to be contemplated, any may also serve as optimal dosing, depending on the need. For example, dosage amounts of between 50-5000 μg Δ^9-THC, 200-1000 μg Δ^9-THC, 50-500 μg Δ^9-THC, 1000-5000 μg Δ^9-THC, or intermediate, higher or lower ranges.
In the framework of the two-year stability study, samples were also taken for aerosolization using the Syqe Inhaler. The Syqe Inhaler was set to aerosolize 500 μg THC doses, in accordance with some embodiments. Data is provided only for time points in which three or more batches were tested (namely, BL and 6, 9, 18 and 24 months). […] BL, 6-, 9-, 18-, and 24-months' values were 484.76±31.28n, 486.30±50.56n, 563±22.06 μg, 597.94±16.75 μg and 554.67±36.00 μg, respectively. All aerosolized THC doses were well within the 500 μg±25% range (i.e., 375-625 μg) that apply to pharmaceutical grade inhalers (16).

[5] = Heating of ground cannabis samples to target temperatures 60-150° C.; vaporized THC measured in aerosol, residual terpenes by GC/MS; assay type: physicochemical; details: 135 mg ground cannabis, THC measured in the aerosol, FIG. 6A
Protocol: The vaporization plots in FIGS. 6A-B show results of an experiment performed by the inventors in which samples of 135 mg of ground cannabis were heated to several target temperatures, including 60° C., 70° C., 80° C., 90° C., 100° C., 110° C., 120° C., 130° C., 140° C. and 150° C. At each of the target temperatures, vaporized THC was measured in the aerosol. At each of the target temperatures, the residual mass of ground cannabis was analyzed using Gas Chromatography-Mass Spectrometry (GC/MS) to determine existence of terpenes, such as: Linalool, Isopulegol, Geraniol, Caryophyllene, […] Humulene<alpha-> and Nerolidol. The total terpenes residue (as remaining in the ground cannabis) is indicated by the dashed line in FIG. 6A. Based on the residual mass of terpenes, the released (vaporized) amount terpenes was calculated, by subtracting the measured residual mass from a respective reference mass.
As can be observed from FIG. 6A, THC (indicated by the continuous line) release started at a target temperature of 130 degrees C., and increased with the rising of the target temperature (up to 150 degrees C.).

[6] = after four years, room temperature (22 C), light or darkness (conditions A and B); cited from earlier work

## CCCCCc1cc2c(c(O)c1C(=O)O)[C@@H]1C=C(C)CC[C@H]1C(C)(C)O2 (relative stereo) [THCA, (−)-Δ^9-trans-tetrahydrocannabinolic acid]
[1]
  change in phytocannabinoid amount during storage: decreased significantly
[2]
  change in phytocannabinoid concentration during storage: no significant change
[3]; 25° C.
  change in phytocannabinoid amount during storage: decreased significantly

## C=C(C)[C@@H]1CCC(C)=C[C@H]1c1c(O)cc(CCCCC)cc1O [CBD, Cannabidiol, reference compound]
[1]
  amounts detected at all time points: mostly undetected
[2]; BL to 3 months
  concentration detected at all time points: mostly undetected
[3]; 25° C., BL to 24 months
  concentration detected at all time points: mostly non-detected

## C=C(C)[C@@H]1CCC(C)=C[C@H]1c1c(O)cc(CCCCC)c(C(=O)O)c1O [CBDA, Cannabidiolic acid]
[1]
  amounts detected at all time points: mostly undetected
[2]
  change in phytocannabinoid concentration during storage: no significant change
[3]; 25° C.
  change in phytocannabinoid amount during storage: no significant change
[3]; before storage
  pre-storage amount: ≤ 0.006 mg/sample

## CCCCCc1cc(O)c(C/C=C(\C)CCC=C(C)C)c(O)c1C(=O)O [CBGA, Cannabigerolic acid]
[1]
  change in phytocannabinoid amount during storage: decreased significantly
[2]
  change in phytocannabinoid concentration during storage: no significant change
[3]; 25° C.
  change in phytocannabinoid amount during storage: decreased significantly

## CCCCCc1cc(O)c2c(c1)OC(C)(C)c1ccc(C)cc1-2 [CBN, Cannabinol]
[1]
  change in phytocannabinoid amount during storage: increased significantly
[2]
  change in phytocannabinoid concentration during storage: no significant change
[3]; 25° C.
  change in phytocannabinoid amount during storage: increased significantly

## CCCCCc1cc(O)c2c(c1)OC(C)(C)[C@@H]1CCC(C)=C[C@@H]21 [THC, (−)-Δ^9-trans-tetrahydrocannabinol]
[4]; 6 months at 25° C.
  aerosolized THC dose: 486.30±50.56 n
[4]; 9 months at 25° C.
  aerosolized THC dose: 563 ± 22.06 µg
[4]; 18 months at 25° C.
  aerosolized THC dose: 597.94 ± 16.75 µg
[4]; 24 months at 25° C.
  aerosolized THC dose: 554.67 ± 36.00 µg
[4]; BL to 24 months at 25° C., 500 μg±25%
  range within which all aerosolized THC doses remained: 375 to 625 µg
[4]; BL
  aerosolized THC dose: 484.76±31.28 n
[5]
  target temperature at which THC release started: 130 degrees C.
[1]
  change in phytocannabinoid amount during storage: increased significantly
[2]
  change in phytocannabinoid concentration during storage: no significant change
[6]
  THC degraded: ~100%
[3]; 25° C.
  change in phytocannabinoid amount during storage: increased
[3]; 25° C., listed as Δ^9-THC
  change in phytocannabinoid amount during storage: increased significantly
